In paper doi:10.1101/261990v1 (biorxiv, 2018):

Key:
[1] = target: T1, MGIC (Myoinhibitory peptide-Gated Ion Channel; ENaC5) (Platynereis dumerilii, UniProt A0A2S1B6I3); test: two-electrode voltage clamp, Xenopus oocytes; assay type: cell-based
T1 sequence (A0A2S1B6I3 1-589): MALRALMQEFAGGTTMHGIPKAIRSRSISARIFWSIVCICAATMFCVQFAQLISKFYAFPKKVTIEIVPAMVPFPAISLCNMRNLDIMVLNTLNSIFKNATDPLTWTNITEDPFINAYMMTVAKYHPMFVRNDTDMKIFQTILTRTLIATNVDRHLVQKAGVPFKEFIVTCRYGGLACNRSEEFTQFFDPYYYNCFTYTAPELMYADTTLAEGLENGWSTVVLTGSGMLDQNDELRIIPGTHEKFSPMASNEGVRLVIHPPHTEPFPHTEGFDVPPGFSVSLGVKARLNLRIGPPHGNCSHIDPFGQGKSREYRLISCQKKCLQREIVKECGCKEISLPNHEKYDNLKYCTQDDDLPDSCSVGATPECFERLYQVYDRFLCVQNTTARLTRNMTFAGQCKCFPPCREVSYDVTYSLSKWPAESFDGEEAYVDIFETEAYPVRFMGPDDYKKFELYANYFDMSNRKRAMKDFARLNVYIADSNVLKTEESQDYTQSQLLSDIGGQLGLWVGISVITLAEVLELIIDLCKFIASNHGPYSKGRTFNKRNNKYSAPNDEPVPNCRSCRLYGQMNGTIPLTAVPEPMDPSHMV

[2] = target: T1, MGIC (Myoinhibitory peptide-Gated Ion Channel; ENaC5); test: two-electrode voltage clamp, Xenopus oocytes; assay type: cell-based; details: read-out: % of control current at 50 μM

N=C(N)NC(=O)c1nc(Cl)c(N)nc1N [amiloride]
IC50 [1]: 13 ± 2 µM

NC(=NC(=O)c1nc(Cl)c(N)nc1N)NCc1ccccc1 [benzamil]
remaining activity at 50 µM [2]: 74 ± 3%

N=C(N)c1ccc(/N=N/Nc2ccc(C(=N)N)cc2)cc1 [diminazene]
IC50 [1]: 0.73 ± 0.16 µM

NC(=NC(=O)c1nc(Cl)c(N)nc1N)Nc1ccccc1 [phenamil]
remaining activity at 50 µM [2]: 45 ± 4%
